≈ marks a conversion by molar mass, not a printed value.

In data set [1] the test system is Candida tropicalis. In words: Agar cup diffusion, zone of inhibition. The format is cell-based. The source says:
(§1) This Example provides a description of the antifungal activity of the active pharmaceutical ingredient amphotericin B in the orally dissolvable films disclosed herein compared to that of unmodified amphotericin B. Test organisms utilized in this experiment were Candida albicans and Candida tropicalis. Orally dissolvable amphotericin B-containing film(s) utilized in this Example were made according to the process described in Example 3.
(§2) Two different species of infectious fungal genus Candida were cultured. A first mixture of sabouraud dextrose agar and broth was inoculated with Candida albicans and allowed to sit at room temperature for a period of two days under aerobic conditions. A second mixture of sabouraud dextrose agar and broth was inoculated with Candida tropicalis and allowed to sit at room temperature for 2 days under aerobic conditions. This established two cultures (one each) of the test organisms.
(§3) To standardize the respective cultures, the optical density of each culture was adjusted using a 0.5 McFarland (turbidity) standard, approximating cultures to be approximately […] colony forming units per milliliter (cfu/mL).
(§4) Each respective suspension was mixed until homogeneous to provide a final culture density of about 1×10^4 cfu/mL.
(§5) Agar cup diffusion was used for testing antifungal activity of the test compositions. 0.1 mL of each respective sample of amphotericin B or amphotericin B-containing film was provided in a cylinder. Film concentration was 1.8 mg amphotericin B per film. Each test plate contained two samples (two cylinders). Tests were performed in triplicate (3 plates per test composition). Plates were incubated at room temperature for a period of 2 days as amphotericin B test compositions were allowed to diffuse into the agar layer containing test organism(s).
(§6) Amphotericin B and amphotericin B-containing films were then evaluated for in vitro antifungal activity by measuring the zone of inhibition and microbial inhibition concentration (MIC) of each sample. Results are shown in FIGS. 2A, 2B, and 2C for the test organism Candida albicans and FIGS. 3A, 3B, and 3C for the test organism Candida tropicalis. Therein, amphotericin B samples are indicated as “A” and amphotericin B-containing films are indicated as “B”.

Data set [2] deals with Candida albicans. In words: Agar cup diffusion, zone of inhibition. The format is cell-based.
Description: as §1, §2, §3, §4, §5, §6

For data set [3] the following is noted: physiological pH; cited from earlier work.
Data set [4] concerns Candida spp. In words: Resazurin microtiter assay (REMA), MIC, Candida spp. tested. In kind it is cell-based. The following applies: Candida albicans and Candida tropicalis; read-out: average MIC against Candida spp. tested. Here is the method:
This Example provides a description of antifungal efficacy testing wherein minimum inhibitor concentration (MIC) of the active pharmaceutical ingredient amphotericin B in the orally dissolvable films disclosed herein compared to that of unmodified amphotericin B. The test organisms utilized in this experiment were Candida tropicalis and Candida albicans.
A resazurin microtiter assay (REMA) assay was performed using orally dissolvable films prepared according to the process described in Example 3 and unmodified amphotericin B. Samples were run in triplicate as Sets 1-3 for each test material against each pathogen.

The mark [5] stands for this setting: 0.1 mL sample, room temperature, 2 days.

In the case of `C[C@@H]1[C@H](O)[C@@H](C)/C=C/C=C/C=C/C=C/C=C/C=C/C=C/[C@H](O[C@@H]2O[C@H](C)[C@@H](O)[C@H](N)[C@@H]2O)C[C@@H]2O[C@](O)(C[C@@H](O)C[C@@H](O)[C@H](O)CC[C@@H](O)C[C@@H](O)CC(=O)O[C@H]1C)C[C@H](O)[C@H]2C(=O)O` [AmpB, (1R,3S,5R,6R,9R,11R,15S,16R, 17R, 18S, 19E,21E,23E, 25E, 27E,29E,31E,33R,35S,36R,37S)-33-[(2R,3S,4S,5S,6R)-4-amino-3,5-di hydroxy-6-methyloxan-2-yl]oxy-1,3,5,6,9,11,17,37-octahydroxy-15,16,18-trimethyl-13-oxo-14,39-dioxabicyclo[33.3.1]nonatriaconta-19,21,23, 25, 27,29,31-heptaene-36-carboxylic acid], in data set [1] (setting [5]), the “Zone of Inhibition, Set 1” value was found to be 20 mm; the “Zone of Inhibition, Set 2” value is given as 22 mm; the “Zone of Inhibition, Set 3” value was 22 mm. Moreover, the “Effective Zone of Inhibition” value in data set [1] (mean of Sets 1-3) is recorded as 21.33 ± 1.15 mm. In data set [2] (setting [5]), the “Zone of Inhibition, Set 1” value was 19 mm; the “Zone of Inhibition, Set 2” value is reported as 19 mm; the “Zone of Inhibition, Set 3” value was 20 mm. Further, the “Effective Zone of Inhibition” value in data set [2] (mean of Sets 1-3) was determined as 19.33 ± 0.57 mm. Moreover, the solubility in saline entry in data set [3] is “insoluble”. Moreover, in data set [4], the MIC was ~1.1 µg/mL (≈ 1.19 µM).
